Measurements as given in ChEMBL document CHEMBL1157539, “Thousands of chemical starting points for antimalarial lead identification” (Nature, 2010).

system: Plasmodium falciparum; assay: GSK_TCMDC: Inhibition of Plasmodium falciparum 3D7 in whole erythrocytes, using parasite LDH activity as an index of growth.; assay type: functional, organism-based; conditions: Plasmodium falciparum, 3D7

Structure (SMILES) | XC50 [nM]
C=CCN1C(=O)c2[nH]nc(-c3cc(C)c(C)cc3O)c2C1c1cccc(Br)c1 (stereo unspecified) | 1160
CN1CCN(CCCN(Cc2ccc(-c3cccc(CNCc4ccc5c(c4)OCO5)c3)cc2)C(=O)Nc2ccccc2)CC1 | 183
CN1CCN(CC(=O)Nc2ccc(-c3ccc(-c4nc5cc(C(F)(F)F)ccc5[nH]4)cc3)cc2)CC1 | 420
COc1ccc2[nH]cc(C3CCN(CCCCCNC(=O)c4ccc(-c5ccccc5)cc4)CC3)c2c1 | 795
CC(=O)Nc1cccc(/C=C/C(=O)N2CCC(N3CCCCC3)CC2)c1 | 1050
O=C(NCC(c1ccc(C(F)(F)F)cc1)N1CCCC1)c1cc(-c2ccncc2)c(-c2cccc(O)c2)o1 (stereo unspecified) | 1060
COCCCNC(=O)C1CCN(C(c2ccc(Cl)cc2)c2ccc(Cl)cc2)CC1 | 920
Cc1ccc(CC(C)NCC(O)c2cccc(C(F)(F)F)c2)cc1F (stereo unspecified) | 916
Cc1cc(N/N=C/c2ccccc2[N+](=O)[O-])c2cc(C(F)(F)F)ccc2n1 | 750
C[C@H](CNc1ccnc(Nc2ccc3[nH]c(=O)[nH]c3c2)n1)c1ccccc1 | 1310
CCc1cc2c(cc1CC)CC(NC[C@@H](O)c1ccc(O)c3[nH]c(=O)ccc13)C2 | 1120
CC(C)CCN(Cc1cncn1Cc1cccc(C(F)(F)F)c1)C(=O)c1cncc(-c2ccccc2)c1 | 774
NCCNC(=O)c1ccc(-c2cnc3[nH]cc(-c4ccc(C(N)=O)cc4)c3c2)cc1 | 171
CC(C)COc1ccc(Cl)cc1Cc1ccc(-c2nc3ccc(Br)cc3[nH]2)o1 | 1400
CCCCCC(C)C(C)c1cc(O)c2c(c1)OC(C)(C)c1cnccc1-2 (stereo unspecified) | 770
Cc1ccccc1OCC(O)CN1CCC(C2CCN(CC(O)COc3ccccc3C)CC2)CC1 (stereo unspecified) | 307
NC(=O)c1cnc2cc(-c3ccoc3)ccc2c1Nc1ccc(NC(=O)Nc2ccccc2Cl)cc1 | 538
CCc1c[nH]c2c(N3CCCC3=O)cc(C(=O)N[C@@H](Cc3ccccc3)[C@H](O)CNC(C)(C)c3cccc(C(F)(F)F)c3)cc12 | 115
c1ccc2c(NCCCCCCNc3c4c(nc5ccccc35)CCCC4)c3c(nc2c1)CCCC3 | 196
CC(C)(C)NS(=O)(=O)c1cc(C(=O)N2CCC(CCN3CCC(C(=O)c4ccc(F)cc4)CC3)(c3cccc(F)c3)CC2)c(Cl)cc1F | 746
COc1cc(Nc2nccc(N3CCC(NC(=O)c4cccc(C#N)c4)C3)n2)cc(OC)c1OC (stereo unspecified) | 992
OCCN1CCN(Cc2cccc(-c3ccc(-c4nc5cc(C(F)(F)F)ccc5[nH]4)s3)c2)CC1 | 86.7
CC[C@H]1CN2CC[C@@H]1C[C@H]2[C@H](O)c1cc(N2CCC(C(N)=O)CC2)nc2ccc(OC)cc12 | 773
CC(C)(C)[C@@H](Nc1ccc(C#N)c2ccccc12)C(=O)NC1(Cc2ccc(O)cc2)CCCC1 | 1440

Structure (SMILES) | XC50 [nM]
COC(=O)c1cccc(CNCc2ccc(-c3ccc(-c4nc5cccc(C)c5[nH]4)cc3)cc2)c1 | 283
CC(=O)N(C)c1cccc(C(=O)Nc2cccc(-c3cccc(-c4nc5cccc(C)c5[nH]4)c3)c2)c1 | 617
C=Cc1c(C2CCN(CCCCNC(=O)c3ccc(-c4ccc(C#N)cc4)cc3)CC2)ccc2c1CCCC2 | 878
CSc1ccc(NC(=O)Nc2cc(C)nc3ccccc23)cc1 | 713
O=C(Nc1ccc(Br)cc1)N1CCC(n2c(-c3ccccc3)nc3cccnc32)CC1 | 763
COc1ccc2nccc(NC(=O)C3(O)CCC(NCc4ncc5c(c4Cl)OCCO5)CC3)c2n1 (stereo unspecified) | 254
O=C(/C=C/c1ccc(Cl)c(Cl)c1)NCCCCCN1CCC(NC(=O)Nc2ccc(F)c(Cl)c2)CC1 | 619
Cc1c(S(=O)(=O)Nc2ccc3nccc(N4CC(C)NC(C)C4)c3c2)sc2ccc(Cl)cc12 (stereo unspecified) | 1020
COc1ccc(C=NN=c2cc(C)[nH]c3ccccc23)c(OC)c1 | 616
COc1ccc(Nc2nccc(N3CCC(NS(=O)(=O)c4ccc(NC(C)=O)cc4)C3)n2)cc1 (stereo unspecified) | 795
CCCN1CCN(c2cc(NCC)c3c4c(onc24)-c2ccccc2C3=O)CC1 | 1060
CN1CCN(c2ccc(-c3cc(-c4cc(F)c(F)c(F)c4)cnc3N)cc2)CC1 | 1010
O=C(/C=C/c1c(Cl)cccc1Cl)NC1CCC(CN2CCC(c3c[nH]c4ccncc34)CC2)CC1 (stereo unspecified) | 158
CN(C)CCOc1cc(NC(=O)Nc2ccc(-c3ccccc3)cc2Cl)ccc1I | 245
Cc1ccccc1CNc1noc(-c2c(F)cccc2Cl)n1 | 722
Cc1ccc(Oc2ccc(NC(=O)CNc3ccccc3N3CCCC3=O)cc2)cc1 | 366
CCCCCCn1c2c(c(=N)c3c1CCC3)CCCC2 | 291
CN(CCCNc1ccc(C(=O)Nc2ccc(C(F)(F)F)cc2)cc1[N+](=O)[O-])Cc1ccccc1 | 229
c1ccc2[nH]c(CN(Cc3nc4ccccc4[nH]3)Cc3nc4ccccc4[nH]3)nc2c1 | 668
COc1ccc(-c2csc3nc(C)nc(Cl)c23)cc1OC | 357
NC1CCN(Cc2ccc(-c3ccc(-c4nc5ccccc5[nH]4)cc3)cc2)C1 (stereo unspecified) | 147
COc1cccc(C2(c3cccc(OC)c3)N=C(N)N(CCCc3ccccc3)C2=O)c1 | 260
CN1CC=C(c2c[nH]c3ccc(OC(=O)c4ccccc4)cc23)C1 | 800
Cc1noc(C)c1-c1cccc(CNCc2ccc(-c3cccc(-c4nc5cc(F)ccc5[nH]4)c3)cc2)c1 | 545

Structure (SMILES) | XC50 [nM]
Nc1nc(N)c2c(ccc3nn(Cc4cccnc4)cc32)n1 | 355
COc1ccc(Nc2ncc(Cl)c(Nc3cccnc3C(N)=O)n2)cc1N1CCN(C)CC1 | 225
CCN1CCC(N(Cc2ccc(-c3ccc(C(F)(F)F)cc3)cc2)C(=O)Cn2c(CCc3cccc(F)c3F)cc(=O)c3ccccc32)C1 (stereo unspecified) | 1010
COc1ccc(-n2ccnc2SCC(=O)Nc2cc(Cl)ccc2OC)c(OC)c1 | 734
CC(=O)Nc1ccc(C(=O)Nc2cccc(-c3cccc(-c4nc5cc(F)ccc5[nH]4)c3)c2)cn1 | 134
Cc1cccc2nc(-c3cccc(-c4cccc(NC(=O)c5ccc(=O)[nH]n5)c4)c3)[nH]c12 | 789
N#Cc1ccc(CN2CCC(Oc3ccc(NC(=O)c4cccs4)cc3)CC2)cc1 | 1030
COc1cc(NC(=O)NC(CCN2CCC3(CCc4ccccc43)CC2)c2ccc(Cl)c(Cl)c2)cc(OC)c1OC (stereo unspecified) | 679
Cc1ccc2c(N/N=C/c3ccccc3[N+](=O)[O-])cc(C)nc2c1 | 416
COc1ccc(NC(=O)C2c3ccccc3C(=O)N(CC(C)C)C2c2cccs2)cc1OC (stereo unspecified) | 203
CN1CCCC1CNS(=O)(=O)c1ccc(C(=O)NCC2CC2)cc1 (stereo unspecified) | 174
O=C(Nc1ccc(Cn2ncc(N3CCCNCC3)c(Cl)c2=O)cc1)Nc1ccc(C(F)(F)F)cc1 | 731
Oc1ccc(CCNCCCCCCNCCc2ccc(Cl)c3ccccc23)cc1O | 716
Cc1ccc(S(=O)(=O)NC(=N)NC(N)=O)cc1 | 794
N=C(N)c1cc(Br)cc(NC(=O)Nc2cc(Br)cc(C(=N)N)c2)c1 | 819
COc1cc2ccccc2c(CNCCCCCCNCc2c(OC)c(OC)cc3ccccc23)c1OC | 1110
COc1ccc2nccc(NC(=O)C3(O)CCC(NCc4ccc5c(c4)NCCS5)CC3)c2n1 (stereo unspecified) | 598
Cc1noc(-c2ccccc2)c1NC(=O)NC1CCN(CCCCCNC(=O)/C=C/c2ccc(Cl)c(Cl)c2)CC1 | 985
Cc1cc(N[C@@H](Cc2ccccc2)C(=O)NCc2cccs2)nc(Nc2ccccc2)n1 | 1240
O=C(CSc1nnc(O)n1Cc1ccccc1)Nc1ccccc1-c1ccccc1 | 953
Cc1cccc2nc(-c3cccc(-c4cccc(NC(=O)Nc5ccsc5)c4)c3)[nH]c12 | 170
O=C(NCCCCCN1CCC(c2c[nH]c3ccccc23)CC1)Nc1cccc(Cl)c1 | 1020
Cn1nc(-c2ccccc2F)c2cc(C(=O)Nc3cccnc3)sc21 | 810
O=C(Nc1cccc(CN2CCCN(Cc3ccc(O)cc3)CC2)c1)c1cc2ccccc2s1 | 362

Structure (SMILES) | XC50 [nM]
Clc1ccc(-c2[nH]c3ccccc3c2CN2CCC(N3CCCCC3)CC2)cc1 | 1060
Cc1cc(-c2nc3cc(C(=N)N)ccc3[nH]2)c(C)cc1-c1nc2cc(C(=N)N)ccc2[nH]1 | 397
O=C(Nc1ccc(-c2nc3ccc(NC(=O)c4ccc(Br)cc4)cc3[nH]2)cc1)c1ccc(Br)cc1 | 786
c1ccc(CNCCn2c(-c3ccc4c(c3)CCO4)nc3c(N4CCCC4)cccc32)cc1 | 1130
Cc1ccc2nc(C)n(C3CCN(C(=O)Cc4ccccc4C)CC3)c2c1 | 243
Cc1ccccc1CNC(=O)Nc1cccc(-c2csc(NC(=N)N)n2)c1 | 700
Cc1cc(N(CCO)CCCN2CCCCC2)nc(Nc2ccc(Cl)cc2)n1 | 547
c1cc(CNC2Cc3ccc(-c4cccs4)cc3C2)cc(-n2ccnc2)c1 (stereo unspecified) | 594
O=C(Nc1cccc(-c2cc(-c3c(Cl)cccc3Cl)no2)c1)c1cncc(-c2cccs2)c1 | 952
Cc1ccc2[nH]c(C)cc(=NN=Cc3ccccc3F)c2c1 | 171
CCCCNC(=O)[C@H](CC1CCCCC1)NC(=O)c1ccc(O)c(-c2cccc(C(F)(F)F)c2)c1 | 773
c1ccc2[nH]c(-c3ccc(-c4ccc(CNC5CC5)cc4)s3)nc2c1 | 1050
CCCCCCCn1c2c(c(=N)c3c1CCC3)CCCC2 | 102
COc1ccc2nccc([C@@H](O)CN3CCC(NC(=O)c4cccc(C(=O)c5ccccc5)c4)CC3)c2c1 | 685
COc1cc(C(=O)Nc2ccc3nc(N4CCN(C)CC4)cc(C)c3c2)cc(OC)c1OC | 289
COc1ccc(CCNCc2ccc3nc(N)c(C)cc3c2)cc1 | 992
CCOC(=O)NC1=NC(C)(C)N(OCc2cccc3c2ccc2ccccc23)C(NC(=O)OCC)=N1 | 172
CN1CCC(C(=O)Nc2cccc(-c3ccc(-c4nc5cc(C(F)(F)F)ccc5[nH]4)cc3)c2)CC1 | 675
COc1cc(OC)cc(-c2nn(-c3ccc([N+](=O)[O-])cc3C#N)c(=S)n2Cc2ccco2)c1 | 577
Cc1cccc2nc(-c3ccc(-c4ccc(CNCc5ccc(S(C)(=O)=O)cc5)cc4)cc3)[nH]c12 | 752
O=C(Nc1ccc(N2CCN(C(=O)/C=C/c3ccccc3)CC2)c(Cl)c1)c1ccc([N+](=O)[O-])o1 | 859
Cc1cccc2nc(-c3cccc(-c4ccc(C(=O)NCc5ccccc5S(C)(=O)=O)cc4)c3)[nH]c12 | 750
COc1ccc(NC(=O)NC2CCN(CCCOc3cc(C)nc4ccccc34)CC2)cc1OC | 1280
C[C@H](NC(=O)c1c(OC2CN(C(c3ccccc3)c3ccccc3)C2)c(-c2ccccc2)nc2ccccc12)C1CCCCC1 | 978
